These results are taken from ChEMBL document CHEMBL1201862, “PubChem BioAssay data set” (2004).

The source made the active and inactive calls. Where only a bound is given, the exact number is not on record here.

One test addresses T1, Leucine aminopeptidase (Plasmodium falciparum 3D7, UniProt Q8IL11).
T1 sequence (Q8IL11 whole entry): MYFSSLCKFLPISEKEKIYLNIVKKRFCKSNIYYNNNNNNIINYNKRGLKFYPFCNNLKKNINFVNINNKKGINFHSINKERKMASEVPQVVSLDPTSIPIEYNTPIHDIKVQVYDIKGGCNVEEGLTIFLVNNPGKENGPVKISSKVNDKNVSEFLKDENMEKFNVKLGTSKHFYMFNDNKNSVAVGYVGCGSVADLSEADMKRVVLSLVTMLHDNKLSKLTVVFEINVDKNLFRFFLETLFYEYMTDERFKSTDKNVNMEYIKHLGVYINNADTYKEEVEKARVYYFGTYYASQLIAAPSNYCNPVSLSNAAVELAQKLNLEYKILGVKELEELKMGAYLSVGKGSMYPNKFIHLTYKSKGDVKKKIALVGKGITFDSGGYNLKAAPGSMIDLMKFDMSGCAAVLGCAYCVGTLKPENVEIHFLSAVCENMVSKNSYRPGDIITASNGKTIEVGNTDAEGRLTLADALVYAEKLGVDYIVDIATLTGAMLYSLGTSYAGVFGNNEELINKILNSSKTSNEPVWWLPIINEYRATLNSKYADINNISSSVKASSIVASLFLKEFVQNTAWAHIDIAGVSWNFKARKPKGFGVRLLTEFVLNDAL
The experiment in a line: P. falciparum M17LAP inhibitors, primary screen, biochemical, fluorogenic H-Leu-NHMec substrate, 1536-well (AID 1619). It is filed as functional.

A short description of test [1]: non-specific 3'UTR reporter inhibition in Clone20-Shn3RL – cell-based, Renilla luciferase, cherry-picked, counter-screen for Shn3 inhibitor project, dose response (AID 624133). It counts as functional.
A short description of test [2]: loss of viability in HepG2 cells – cell-based, CellTiter-Glo, cherry-picked, cytotoxicity control for Shn3 inhibitor project, dose response (AID 624134). It is filed as functional. (In ATP-based viability assays light output follows the ATP content of the culture.)
Test [3] in a line: microbe, parasite or virus in culture. It counts as functional. The note with it: Mycobacterium tuberculosis.
Test [4] has as its target Induced myeloid leukemia cell differentiation protein Mcl-1 (Homo sapiens, UniProt Q07820). It is filed as functional.
Test [5] addresses T2, High affinity choline transporter 1 (Homo sapiens, UniProt Q9GZV3).
T2 sequence (Q9GZV3 whole entry): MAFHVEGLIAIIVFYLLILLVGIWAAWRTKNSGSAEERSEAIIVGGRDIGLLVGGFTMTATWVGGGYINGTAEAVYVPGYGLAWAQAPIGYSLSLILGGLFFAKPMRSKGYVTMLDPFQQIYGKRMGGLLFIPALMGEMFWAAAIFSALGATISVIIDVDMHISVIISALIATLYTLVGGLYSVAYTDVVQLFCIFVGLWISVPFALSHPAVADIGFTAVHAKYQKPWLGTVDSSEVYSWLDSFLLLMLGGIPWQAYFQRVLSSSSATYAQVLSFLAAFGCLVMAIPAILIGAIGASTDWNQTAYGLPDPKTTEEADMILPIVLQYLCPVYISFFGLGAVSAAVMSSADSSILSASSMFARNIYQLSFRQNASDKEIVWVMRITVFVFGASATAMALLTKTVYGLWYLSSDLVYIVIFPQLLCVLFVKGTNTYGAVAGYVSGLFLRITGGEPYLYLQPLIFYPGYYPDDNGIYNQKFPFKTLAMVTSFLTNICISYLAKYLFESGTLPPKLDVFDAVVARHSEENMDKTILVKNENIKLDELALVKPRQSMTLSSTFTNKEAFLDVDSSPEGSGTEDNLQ
The experiment in a line: human choline transporter blockers, potency – cell-based, 5-point CRC, membrane potential dye, dose response (AID 504840). It counts as functional.

Test [6] in a line: reduction of Shn3 3'UTR-driven luciferase in osteoblasts – cell-based, Clone20 osteoblasts, firefly luciferase, cherry-picked, dose response (AID 624132).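 Note: firefly luciferase luminescence from reporter carrying the Shn3 3'UTR in osteoblasts.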 It counts as functional.
Test [7] addresses T3, Fatty acid synthase (Homo sapiens, UniProt P49327). The experiment in a line: inhibition of human FAS-TE enzyme activity – biochemical, kinetic fluorescence intensity, dose response (AID 624326).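 Note: rate of fluorescence rise from hydrolysis of a fluorogenic O-methyl fluorescein ester substrate.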 It is filed as functional.
Test [8] concerns the target T3, Fatty acid synthase. The test can be described thus: inhibition of human FAS-TE enzyme activity – biochemical, endpoint fluorescence intensity, uHTS hits, dose response (AID 624327).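 Note: fluorescence from hydrolysis of an O-methyl fluorescein acyl ester substrate by the enzyme.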 It counts as functional.
The target in test [9] is T4, Histone-lysine N-methyltransferase NSD2 (Homo sapiens, UniProt O96028).
T4 sequence (O96028 whole entry): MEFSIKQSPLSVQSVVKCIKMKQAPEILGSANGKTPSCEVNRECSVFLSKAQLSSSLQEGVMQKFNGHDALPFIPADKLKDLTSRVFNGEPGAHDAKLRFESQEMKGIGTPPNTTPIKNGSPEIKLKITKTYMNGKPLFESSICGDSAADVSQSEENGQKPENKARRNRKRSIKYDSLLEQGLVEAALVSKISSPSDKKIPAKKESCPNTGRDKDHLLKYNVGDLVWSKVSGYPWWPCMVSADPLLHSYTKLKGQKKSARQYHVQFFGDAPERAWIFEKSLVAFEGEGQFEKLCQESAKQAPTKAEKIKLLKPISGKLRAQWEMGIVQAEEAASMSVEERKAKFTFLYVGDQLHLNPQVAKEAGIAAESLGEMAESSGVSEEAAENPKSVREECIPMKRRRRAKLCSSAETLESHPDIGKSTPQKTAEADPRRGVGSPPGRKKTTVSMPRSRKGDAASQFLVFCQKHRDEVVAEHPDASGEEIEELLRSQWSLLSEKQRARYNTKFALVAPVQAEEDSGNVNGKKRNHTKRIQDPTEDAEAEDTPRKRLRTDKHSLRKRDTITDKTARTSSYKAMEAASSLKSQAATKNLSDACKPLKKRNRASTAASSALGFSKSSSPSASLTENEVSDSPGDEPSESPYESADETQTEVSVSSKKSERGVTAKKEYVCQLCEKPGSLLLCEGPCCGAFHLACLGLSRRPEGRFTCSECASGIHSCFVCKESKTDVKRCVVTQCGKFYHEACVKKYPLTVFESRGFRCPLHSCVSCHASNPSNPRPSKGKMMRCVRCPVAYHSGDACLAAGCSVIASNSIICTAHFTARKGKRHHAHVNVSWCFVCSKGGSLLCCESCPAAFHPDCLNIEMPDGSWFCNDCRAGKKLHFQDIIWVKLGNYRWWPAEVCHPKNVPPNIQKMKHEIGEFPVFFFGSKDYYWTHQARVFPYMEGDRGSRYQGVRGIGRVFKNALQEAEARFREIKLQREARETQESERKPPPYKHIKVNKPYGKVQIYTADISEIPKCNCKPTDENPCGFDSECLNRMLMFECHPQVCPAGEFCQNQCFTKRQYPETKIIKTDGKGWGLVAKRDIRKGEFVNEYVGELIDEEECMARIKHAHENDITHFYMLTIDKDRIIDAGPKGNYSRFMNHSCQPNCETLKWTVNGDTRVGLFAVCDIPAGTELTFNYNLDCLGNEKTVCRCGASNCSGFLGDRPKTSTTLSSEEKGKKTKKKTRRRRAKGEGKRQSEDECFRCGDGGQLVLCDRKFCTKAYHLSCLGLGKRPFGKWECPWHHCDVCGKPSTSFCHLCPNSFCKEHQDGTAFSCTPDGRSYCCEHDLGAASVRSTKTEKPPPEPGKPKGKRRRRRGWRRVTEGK
It counts as biochemical.

The nature of the next test: cells. It is filed as functional.
The subject of the next test is INS1. The test can be described thus: INS-1E survival protection against cytokine death – cell-based, luminescence, retest, dose response (AID 449756).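 Note: cell death triggered by IL-1 beta plus TNF-alpha plus IFN-gamma mixture; protective hits raise ATP signal compared with cytokine alone wells.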 It counts as functional. The note with it: Rattus norvegicus.
A short description of test [10]: P. falciparum Dd2 growth inhibitors, dose response, SYBR Green, cherry-picked samples (AID 1159567). It is filed as functional, cell-based.
Test [11] is described as follows: growth inhibition of yeast DHODH-expressing 3D7 parasites – SYBR Green, dry powder samples, dose response (AID 1159570).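 Note: parasite growth measured after 72 hours of compound exposure.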 It is filed as functional, cell-based.
Test [12] is described as follows: Dd2 malaria parasite growth inhibition potency – SYBR Green, dry powder samples, dose response (AID 1159566).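 Note: potency for growth inhibition with lower SYBR green DNA signal.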 It is filed as functional, cell-based.
A short description of test [13]: growth inhibition of PfATP4-mutant resistant parasites – NITD609-resistant line, SYBR Green, dry powder, dose response (AID 1159571).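 Note: parasites synchronized at ring stage by sorbitol before testing.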 It is filed as functional, cell-based.
Test [14] is described as follows: toxicity to human HepG2 hepatoma cells – cell-based, plate reader, dry powder samples, cytotoxicity control, dose response (AID 1159569).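 Note: inhibitor potency with signal falling toward the positive control level.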 It counts as functional.

T3 sequence (P49327 whole entry): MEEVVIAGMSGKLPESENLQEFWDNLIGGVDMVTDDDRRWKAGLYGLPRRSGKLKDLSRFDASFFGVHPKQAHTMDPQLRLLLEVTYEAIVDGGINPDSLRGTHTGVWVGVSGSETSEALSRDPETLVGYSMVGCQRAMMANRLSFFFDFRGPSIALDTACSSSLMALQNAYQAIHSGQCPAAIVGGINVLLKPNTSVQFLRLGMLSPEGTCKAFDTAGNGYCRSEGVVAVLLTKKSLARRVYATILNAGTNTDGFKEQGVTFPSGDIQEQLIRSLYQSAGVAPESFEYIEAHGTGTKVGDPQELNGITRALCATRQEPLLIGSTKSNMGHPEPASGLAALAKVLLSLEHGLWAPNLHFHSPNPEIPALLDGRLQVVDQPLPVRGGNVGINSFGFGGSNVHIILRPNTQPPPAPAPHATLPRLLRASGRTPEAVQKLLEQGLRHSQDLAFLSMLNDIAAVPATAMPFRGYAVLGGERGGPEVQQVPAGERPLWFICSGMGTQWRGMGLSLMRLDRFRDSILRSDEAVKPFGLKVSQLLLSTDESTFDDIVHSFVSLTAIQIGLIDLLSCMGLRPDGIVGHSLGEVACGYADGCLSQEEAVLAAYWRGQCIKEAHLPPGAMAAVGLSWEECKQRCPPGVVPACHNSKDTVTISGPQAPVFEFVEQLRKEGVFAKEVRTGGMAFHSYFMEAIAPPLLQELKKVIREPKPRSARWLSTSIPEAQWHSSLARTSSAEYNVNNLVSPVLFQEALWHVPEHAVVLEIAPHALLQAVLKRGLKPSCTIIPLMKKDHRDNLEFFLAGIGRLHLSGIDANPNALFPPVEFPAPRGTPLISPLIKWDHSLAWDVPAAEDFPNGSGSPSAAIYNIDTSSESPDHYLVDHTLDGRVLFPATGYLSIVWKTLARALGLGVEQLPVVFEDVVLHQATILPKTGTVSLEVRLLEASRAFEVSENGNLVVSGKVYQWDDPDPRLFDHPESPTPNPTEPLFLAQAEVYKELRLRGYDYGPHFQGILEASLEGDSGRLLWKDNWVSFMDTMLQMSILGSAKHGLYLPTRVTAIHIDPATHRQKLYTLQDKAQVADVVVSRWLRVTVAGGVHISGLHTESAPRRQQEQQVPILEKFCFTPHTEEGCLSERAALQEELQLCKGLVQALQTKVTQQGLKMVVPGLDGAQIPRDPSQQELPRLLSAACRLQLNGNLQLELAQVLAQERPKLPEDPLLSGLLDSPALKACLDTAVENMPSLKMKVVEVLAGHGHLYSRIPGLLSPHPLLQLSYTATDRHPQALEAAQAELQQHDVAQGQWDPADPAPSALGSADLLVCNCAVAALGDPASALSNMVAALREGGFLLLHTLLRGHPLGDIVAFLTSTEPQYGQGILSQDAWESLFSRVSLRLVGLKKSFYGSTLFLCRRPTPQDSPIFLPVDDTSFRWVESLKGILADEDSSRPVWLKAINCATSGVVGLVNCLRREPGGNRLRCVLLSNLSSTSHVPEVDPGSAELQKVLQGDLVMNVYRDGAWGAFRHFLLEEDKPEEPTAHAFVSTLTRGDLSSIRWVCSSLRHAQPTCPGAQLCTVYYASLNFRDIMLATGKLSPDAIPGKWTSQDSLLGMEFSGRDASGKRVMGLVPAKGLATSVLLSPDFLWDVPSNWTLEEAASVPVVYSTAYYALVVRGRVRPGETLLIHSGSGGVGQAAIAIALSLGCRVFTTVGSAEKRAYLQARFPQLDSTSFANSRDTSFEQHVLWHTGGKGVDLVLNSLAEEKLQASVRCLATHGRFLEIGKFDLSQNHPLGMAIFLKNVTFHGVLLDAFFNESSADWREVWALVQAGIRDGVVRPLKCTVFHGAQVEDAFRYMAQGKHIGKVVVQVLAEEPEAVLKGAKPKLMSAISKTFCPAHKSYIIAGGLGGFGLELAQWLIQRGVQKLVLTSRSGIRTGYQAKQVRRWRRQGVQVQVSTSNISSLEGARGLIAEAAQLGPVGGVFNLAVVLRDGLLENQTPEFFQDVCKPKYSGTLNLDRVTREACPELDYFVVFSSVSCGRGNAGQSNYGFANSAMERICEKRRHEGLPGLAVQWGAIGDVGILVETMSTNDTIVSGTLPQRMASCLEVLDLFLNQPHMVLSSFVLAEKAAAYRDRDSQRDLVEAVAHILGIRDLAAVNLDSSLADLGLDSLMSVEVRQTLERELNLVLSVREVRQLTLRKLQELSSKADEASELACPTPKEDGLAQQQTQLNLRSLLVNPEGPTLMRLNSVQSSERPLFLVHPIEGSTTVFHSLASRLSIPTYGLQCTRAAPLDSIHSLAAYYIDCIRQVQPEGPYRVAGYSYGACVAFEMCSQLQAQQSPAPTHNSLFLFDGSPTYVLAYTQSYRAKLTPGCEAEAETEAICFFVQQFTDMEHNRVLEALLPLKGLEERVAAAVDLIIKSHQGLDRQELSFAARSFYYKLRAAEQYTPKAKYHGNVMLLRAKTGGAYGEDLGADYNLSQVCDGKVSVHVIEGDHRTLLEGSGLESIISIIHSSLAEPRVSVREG
Induced myeloid leukemia cell differentiation protein Mcl-1, sequence (Q07820 whole entry): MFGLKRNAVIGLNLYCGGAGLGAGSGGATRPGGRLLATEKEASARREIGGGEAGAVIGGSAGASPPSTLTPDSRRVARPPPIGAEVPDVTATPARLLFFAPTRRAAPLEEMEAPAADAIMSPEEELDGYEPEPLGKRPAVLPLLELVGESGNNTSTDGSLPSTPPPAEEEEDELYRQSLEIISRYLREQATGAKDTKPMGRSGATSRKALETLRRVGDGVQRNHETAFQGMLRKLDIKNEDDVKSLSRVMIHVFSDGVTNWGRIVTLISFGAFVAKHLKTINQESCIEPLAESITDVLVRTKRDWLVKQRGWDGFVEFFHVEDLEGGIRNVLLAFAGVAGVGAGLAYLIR

A word on the IC50: it is the midpoint of a concentration-inhibition curve. For the molecule `O=C(CN1C(=O)C2CC=CCC2C1=O)NCC1COc2ccccc2O1` (stereo not given), at Leucine aminopeptidase, the IC50 was 8.66 µM (active).

In the case of `Cc1cc(O)nc(SCC(=O)Nc2cccc3ccccc23)c1C#N`, at Leucine aminopeptidase, the IC50 was 2.2 µM (active).

Broadly, the AC50 is the concentration at which the activity in the assay is half-maximal. Regarding `COc1ccc(-c2nnn(CC(=O)Nc3ccc4c(c3)OCCO4)n2)cc1OC`, the AC50 in test [1] is 21.2 µM (active); in test [2] it was > 70 µM (inactive).

As to `C=CCc1c(C)nc(SC)nc1Nc1ccc(C(C)=O)cc1`, the CC50 in test [3] is > 40 µM (active).

On to `CCN(c1cccc(C)c1)S(=O)(=O)c1ccc2[nH]c(=O)c(=O)[nH]c2c1`, for which the IC50 on Leucine aminopeptidase was 1.62 µM (active).

`O=C1Oc2ccccc2C(=O)/C1=C/c1c[nH]c2ccccc12`: the CC50 in test [3] is 30.9 µM (active). The IC50 in test [4] was 5.56 µM (active).

Regarding `CCC(C)c1ccc(NC(S)=NCc2ccccn2)cc1` (stereo not given), the IC50 in test [5] is 13.2 µM (active).

Take `CC(C)CCNc1nc(N)c([N+](=O)[O-])c(N2CCCCCC2)n1`: the concentration at half-maximal activity (AC50) in test [1] is 5.43 µM (active); in test [6], 8.79 µM (active); in test [2], 47.5 µM (active).

In the case of `O=c1oc(-c2ccccc2F)nc2scc(-c3ccccc3)c12`, the IC50 at Fatty acid synthase [7] is 0.638 µM (active); at Fatty acid synthase [8], 1.19 µM (active).

In the case of `O=C(/C=C/c1cccc([N+](=O)[O-])c1)NCc1ccc2c(c1)OCO2`, the IC50 on Fatty acid synthase [7] was 2.72 µM (active); on Fatty acid synthase [8], 2.33 µM (active).

As to `CCN1CCC(CNCc2cn(-c3ccc(OC)cc3)nc2-c2ccccc2Cl)C1` (stereo not given), the AC50 in test [9] was > 20 µM (inactive).

For the molecule `CCCN(CCC)CCCNC(=O)c1cn(CC)c2ccc(S(=O)(=O)N3CCc4ccccc4C3)cc2c1=O`, the AC50 in [9] was > 20 µM (inactive).

Turning to `CCCCN1C(=O)NC(=O)/C(=C/c2ccc[nH]2)C1=O`, the CC50 in test [3] is > 40 µM (active). Besides, in “cells”, the IC50 is 1.46 µM (active).

`CC(C)COc1ccc(C(=O)N/C(=C/c2cccc([N+](=O)[O-])c2)C(=O)O)cc1`: the figures for the IC50 at Fatty acid synthase [7] and at Fatty acid synthase [8] were 9.3 µM (active) and 14.2 µM (active), respectively.

With `O=S(=O)(c1ccc(Cl)cc1)N1CCN(c2ncnc3sccc23)CC1`, the AC50 with INS1 is 5.44 µM (active); in [1] it was 5.25 µM (active); in test [6], 3.04 µM (active); in test [2], 32.2 µM (active).

On to `Cc1cc([N+](=O)[O-])c(NCCCCCCO)c([N+](=O)[O-])c1`, for which, in [5], the IC50 is 12.6 µM (active).

On to `Cc1cccc(C)c1NC(=O)CN(C)C(=O)c1cccc(S(=O)(=O)N2CCN(c3ccc(F)cc3)CC2)c1`, for which the AC50 was 13 µM (active) in test [1], 2.2 µM (active) in test [6] and > 70 µM (inactive) in test [2].

Regarding `COc1ccc(NS(=O)(=O)c2ccc(C(=O)N3CCCCCC3)cc2)cc1`, the AC50 is 9.07 µM (active) in [1], 4.51 µM (active) in [6] and 48.4 µM (active) in test [2].

Take `O[C@H]1C[C@H](c2ccc(Cl)cc2)N(CC2CCCCC2)C[C@@H]1n1cc(C2CC2)nn1`: the IC50 was 13.1 µM (active) on Fatty acid synthase [7] and 12 µM (active) on Fatty acid synthase [8].

For the molecule `C[C@@H]1CN([C@@H](C)CO)C(=O)c2c(c3ccccc3n2C)-c2ccccc2CO[C@@H]1CN(C)C(=O)c1cc(Cl)cc(Cl)c1`, the AC50 was 2.11 µM (active) in test [10]; 2.02 µM (active) in test [11]; 1.88 µM (active) in [12]; 1.5 µM (active) in test [13]; 22.4 µM (active) in test [14].

Take `COc1ccc2c3c(n(C)c2c1)[C@@H](CO)NCC31CCN(Cc2ccc(-c3ccccn3)cc2)CC1`: the AC50 was 0.696 µM (active) in test [10]; 0.447 µM (active) in test [11]; 0.44 µM (active) in [12]; 0.56 µM (active) in [13]; 19.4 µM (active) in test [14].

For the molecule `C[C@@H]1CN([C@@H](C)CO)C(=O)c2c(c3ccccc3n2C)-c2ccccc2CO[C@@H]1CN(C)Cc1ccc(Oc2ccccc2)cc1`, the AC50 in test [10] was 1.3 µM (active); in [11] it was 3.44 µM (active); in test [12] it was 0.59 µM (active); in test [13], 0.906 µM (active); in [14], 22.8 µM (active).

Regarding `O=C(Nc1ccc(-c2ccccc2)cc1)[C@H]1[C@H](CO)[C@H]2Cn3c(cccc3=O)[C@@H]1N2Cc1ccccc1`, the AC50 in test [10] was 1.44 µM (active); in test [11] it was 1.24 µM (active); in test [12], 1.03 µM (active); in test [13] it was 0.921 µM (active); in test [14], 48.4 µM (active).

Regarding `C[C@@H]1CN([C@H](C)CO)C(=O)c2ccccc2-c2ccccc2CO[C@H]1CN(C)C(=O)Nc1cccc(C(F)(F)F)c1`, the AC50 in test [10] is 1.45 µM (active); in test [11], 1.19 µM (active); in test [12] it was 1.03 µM (active); in test [13] it was 3.23 µM (active); in test [14] it was 86.3 µM (active).
